{"source": "a melting point compilation (Tetko et al.; mined from patent text by program, amines drawn as free bases though some values may be those of a salt)", "data": [{"units": {"melting point": "°C"}, "values": [{"smiles": "Cc1ccc(OCc2c(F)cccc2F)c(N)n1", "melting point": "121 to 123"}, {"smiles": "O=C(Oc1ccc2cc3cc(OC(=O)c4ccc(O)cc4)ccc3cc2c1)c1ccc(O)cc1", "melting point": 324}, {"smiles": "CCOCc1nc2c(N)nc3cc(-n4cccn4)ccc3c2n1CCCOC", "melting point": "159 to 160"}, {"smiles": "CCOC(=O)c1c(N2CCN(C(=O)c3cccs3)CC2)c2cnccc2n(Cc2ccc(F)cc2)c1=O", "melting point": 132}, {"smiles": "Nc1ccccc1-c1csc2nc(C34CC5CC(CC(C5)C3)C4)cn12", "melting point": "160 to 162"}, {"smiles": "O=C(NCc1ccccc1-c1ccccc1C(=O)NCCc1ccccn1)c1ccccc1", "melting point": 135}, {"smiles": "Cn1cc(-c2ccncc2)cc(N)c1=O", "melting point": "175 to 176"}, {"smiles": "COC(=O)c1ccc(NC=O)cc1S(=O)(=O)NC(C)(C)C", "melting point": "113 to 114"}, {"smiles": "CC(=O)NC[C@H]1CN(c2ccc(C3=CCOCC3)cc2)C(=O)O1", "melting point": "182 to 184"}, {"smiles": "C=C(C)CNc1cccc(-c2ccnc3c(C(=O)c4cccs4)cnn23)c1", "melting point": "104 to 106"}, {"smiles": "CC(C)(C)OC(=O)NCCCc1ccccc1O", "melting point": "75 to 77"}, {"smiles": "CCOC(=O)COc1cc(C(F)(F)F)c2c(=O)c(-c3ccccc3)coc2c1", "melting point": "139 to 140"}, {"smiles": "Clc1ccc(-c2nnc(Cl)s2)cc1", "melting point": "125 to 127"}, {"smiles": "CC(O)c1ccc2occ(-c3nnn[nH]3)c(=O)c2c1", "note": "(stereo unspecified)", "melting point": "234 to 236"}, {"smiles": "CCn1c(=O)[nH]c(=O)c2c(-c3ccc(F)cc3)c(/C=C/C=O)c(C3CC3)nc21", "melting point": 236}, {"smiles": "c1cnc(N2CCN(Cc3nc4ccccc4[nH]3)CC2)nc1", "melting point": "198 to 200"}, {"smiles": "CCN(CC)C1=NN(Nc2ccc3nc(C)cc(N)c3c2)NC(Cl)=C1", "melting point": 120}, {"smiles": "CC(C)(O)Cc1cc(O)ccc1Br", "melting point": "139 to 141"}, {"smiles": "c1ccc(CNc2nc(-n3cncn3)nc3ccccc23)cc1", "melting point": "193 to 195"}, {"smiles": "Cc1cc(COc2ccccc2)c2c(N)c(C(N)=O)sc2n1", "melting point": "194 to 196"}, {"smiles": "CCN(CC)CCNC(=O)c1c(O)c2cnc(-c3ccccc3)nc2n(CCOC)c1=O", "melting point": "115 to 117"}, {"smiles": "COC(=O)c1c(-c2cc(C)c(O)c(C)c2)c(C)n2c1-c1cc(OC)c(OC)cc1CC2C", "note": "(racemic)", "melting point": "177 to 179"}, {"smiles": "O=C1CCC(N2Cc3c(OCc4ccc5ccccc5n4)cccc3C2=O)C(=O)N1", "note": "(stereo unspecified)", "melting point": "269 to 271"}, {"smiles": "CC(C)(C)OC(=O)NC(=O)C(c1ccccc1)c1ccccc1", "melting point": "160 to 162"}, {"smiles": "O=C(Nc1ccc2c(c1)CS(=O)(=O)N2)C(=O)N1CCC(Cc2ccccc2)CC1", "melting point": "181 to 182"}, {"smiles": "CN(C)c1nc(Cl)nc(N2CCOCC2)n1", "melting point": "96 to 97"}, {"smiles": "Nc1cc(-n2ccnc2)c(F)cc1[N+](=O)[O-]", "melting point": "122 to 123"}, {"smiles": "COc1cccc(C=C2NC(=O)N(C)C2=O)c1", "melting point": "203 to 205"}, {"smiles": "O=Cc1cccc(-c2cccc3ccccc23)n1", "melting point": "65 to 66"}, {"smiles": "Cn1nc(CO)nc1NCCCCOc1cccc(CN2CCCCC2)c1", "melting point": "82 to 83"}, {"smiles": "O=C1NCCN(C(=O)OCc2ccccc2)C1Cc1ccccc1", "note": "(stereo unspecified)", "melting point": "125 to 128"}, {"smiles": "CCCCc1nc2cccc(CCO)c2n1Cc1ccccc1Cl", "melting point": "130 to 132"}, {"smiles": "Cc1cc(Br)ccc1C1(Cn2cncn2)OCCO1", "melting point": 148}, {"smiles": "CC(C)(C)NS(=O)(=O)c1ccccc1-c1ccc(NC(=O)N(Cc2cccc(C(=N)N)c2)c2ccccc2)cc1", "melting point": "140 to 141"}, {"smiles": "CC(C)CCC[C@H](NC(=O)[C@@H](N)Cc1c[nH]cn1)[C@@H](O)C1CCCCC1", "melting point": "126 to 130"}, {"smiles": "CC(C)Oc1cc(/C=C/S(=O)(=O)NC(=O)OC(C)(C)C)n(Cc2ccc(Cl)cc2Cl)n1", "melting point": "152 to 153"}, {"smiles": "N/C(=C1/Sc2ccccc2C1=O)c1ccccc1", "melting point": "121 to 122"}, {"smiles": "CCn1ccc2nc(N3CCN(Cc4ccccc4)CC3)ncc2c1=O", "melting point": "116 to 118"}, {"smiles": "COCCCNC(=O)OCCCc1ccc(OCCOC)cc1Oc1ncc(C(F)(F)F)cc1Cl", "melting point": "83.5 to 85"}, {"smiles": "O=C(C[C@@H](C(=O)OCc1ccccc1)n1c2ccccc2c2ccccc21)OCCOC(=O)c1ccc(NC(=O)OCc2ccccc2)cc1", "melting point": 58}, {"smiles": "O=S(=O)(c1ccccc1)c1c[nH]c2ccc(Br)cc12", "melting point": "176 to 178"}, {"smiles": "CCOC(=O)Cc1csc(-c2cccc(O)c2)n1", "melting point": "95.5 to 97.2"}, {"smiles": "O=C(O)CCCCCCc1ncsc1C(=O)O", "melting point": "151 to 153"}, {"smiles": "O=c1ccc(S(=O)(=O)c2cc3ccccc3o2)n[nH]1", "melting point": "210 to 211"}, {"smiles": "COc1ccc(NC(=O)c2c(Cl)cccc2Cl)c2nccc(NN)c12", "melting point": "> 250"}, {"smiles": "CNC(=N)Nc1nnc(-c2ccccc2C(F)(F)F)s1", "melting point": "160 to 162"}, {"smiles": "CC(C)n1cc(-c2ccc(NC(=O)c3ccccc3)cc2)c2c(N)ncnc21", "melting point": "192 to 195"}, {"smiles": "CC12CCC3c4ccc(C(=O)O)cc4CCC3C1CCC2C(=O)C1CCCCC1", "note": "(stereo unspecified)", "melting point": "280 to 285"}, {"smiles": "Cc1cccc(C)c1NC(=O)CCCl", "melting point": 131}, {"smiles": "O=C(Nc1ccccc1)Nc1ccnc(Br)c1", "melting point": "188 to 189"}, {"smiles": "COC(=O)C1=C(C)NC(c2c(F)cccc2F)=NC1c1ccc(F)cc1Cl", "note": "(stereo unspecified)", "melting point": "126 to 128"}, {"smiles": "CCOC(=O)C(C)n1c(-c2ccc(Cl)cc2)nc2cccnc21", "note": "(stereo unspecified)", "melting point": "103 to 106"}, {"smiles": "C=CC(=O)NCc1c(-c2ccccc2)n[nH]c1C", "melting point": "191 to 193"}, {"smiles": "CCOCc1cc2ccc(OC)cc2o/c1=N\\c1ccccc1", "melting point": "107 to 108"}, {"smiles": "CS(=O)(=O)c1cc(OCc2ccccc2)cs1", "melting point": "108 to 109"}, {"smiles": "O=C(N(c1ccccc1)c1nc(C(Cl)(Cl)Cl)ns1)C(Cl)(Cl)Cl", "melting point": 158}, {"smiles": "CCCn1c(=O)c2[nH]c(C(CC)Cc3ccccc3)nc2n(CCC)c1=O", "note": "(stereo unspecified)", "melting point": 180}, {"smiles": "CC(C)(C)NC(=O)[C@@H]1C[C@H](Cl)CN1C(=O)[C@@H](O)[C@H](Cc1ccccc1)NC(=O)[C@H](CC(N)=O)NC(=O)OCc1ccccc1", "melting point": "103 to 107"}, {"smiles": "NC(=O)c1nc(-c2ccc(=O)[nH]c2)c(-c2ccccc2)nc1N", "melting point": "215 to 220"}, {"smiles": "COC(=O)C=Cc1ccc(OCC(C)NCC(O)c2cccc(Cl)c2)cc1", "note": "(stereo unspecified)", "melting point": "97 to 103"}, {"smiles": "O=C(c1ccc(F)cc1)c1ccc(C(=O)c2ccc(F)cc2)s1", "melting point": 186}, {"smiles": "Cc1c(Cc2nc3n(-c4c(Cl)cc(Cl)cc4Cl)[nH]c(C(C)C)c-3c(=O)n2)cccc1NC(=O)CCl", "melting point": "237 to 238"}, {"smiles": "CC(Sc1nc(Cl)cc(NCc2ccc(Cl)cc2)n1)C(=O)O", "note": "(stereo unspecified)", "melting point": "133 to 136"}, {"smiles": "N#Cc1cc(-c2ccoc2)c2ccc(OCc3cccc(-c4ccc(F)cc4)n3)cc2c1", "melting point": "168 to 170"}, {"smiles": "CCOC(=O)c1cc(Cl)c(OCc2ccccc2)c(Cl)c1", "melting point": "66 to 68"}, {"smiles": "N#CC1=C(C#N)Sc2nc3cc(Cl)ccc3nc2S1", "melting point": "278 to 280"}, {"smiles": "COCCOc1cc(N(C)S(=O)(=O)c2ccccn2)c2[nH]c(C3=NCC(CC(N)=O)S3)cc2c1", "note": "(stereo unspecified)", "melting point": "100 to 102"}, {"smiles": "CC(C)[C@H](NC(=O)OCc1ccccc1)C(=O)NNS(=O)(=O)c1ccccc1", "melting point": "253 to 255"}, {"smiles": "Cc1ccc(N2C(=O)c3cc([N+](=O)[O-])cc([N+](=O)[O-])c3C2=O)cc1", "melting point": "182 to 183"}, {"smiles": "CC(C)c1cc(O)c(O)c(C(=O)O)c1", "melting point": "151 to 152"}, {"smiles": "CCCCCCCCCCCCCCCCCCSC(=O)Nc1ccc(NC(=O)NS(=O)(=O)c2ccc3ccccc3c2)cc1", "melting point": 193}, {"smiles": "O=C(CCn1cnc2c(=O)[nH]cnc21)Nc1ccc(C(=O)O)cc1", "melting point": "319 to 321"}, {"smiles": "CC(C)(C)CC(C)(C)c1ccc(Oc2cc3nc(C(C)(C)C)oc3cc2[N+](=O)[O-])cc1", "melting point": "77 to 78"}, {"smiles": "CCN1C(=O)c2cccnc2N(C)c2nc(-c3ccc[nH]3)ccc21", "melting point": "161 to 162"}, {"smiles": "CCCn1c(C#N)c(Cl)n(-c2ccc(Cl)cc2)c1=O", "melting point": "102 to 103"}, {"smiles": "N#Cc1ccc(OCCCCOc2ccc(-c3cc4cc(C#N)ccc4o3)cc2)cc1", "melting point": "186 to 188"}, {"smiles": "CC(Nc1ccc(Oc2ccc(O)cc2)cc1)C(=O)O", "note": "(stereo unspecified)", "melting point": 188}, {"smiles": "O=S(=O)(O)NCc1cc(I)cc(I)c1O", "melting point": "168 to 170"}, {"smiles": "O=C(COc1ccc2c(-c3ccccc3F)noc2c1Cl)NO", "melting point": 151}, {"smiles": "CCOC(=O)c1c(C(F)(F)F)nc(C(F)(F)F)c(C(=O)OC)c1Cl", "melting point": "46 to 48"}, {"smiles": "COC(=O)C12COc3cc(F)ccc3N1N=C(C(=O)Nc1ccc(C(F)(F)F)cc1)C2", "note": "(stereo unspecified)", "melting point": "178 to 181"}, {"smiles": "COc1cc2c(cc1OCc1ccccc1)CCN(Cc1cccc(O)c1)C2", "melting point": "78 to 79"}, {"smiles": "Nc1ccc(OCc2nc3ccccc3s2)cc1", "melting point": "87 to 89"}, {"smiles": "c1ccc2c(c1)Sc1ccccc1N2C1CN2CCC1CC2", "note": "(stereo unspecified)", "melting point": "160 to 162"}, {"smiles": "COc1ccc(-c2cc(=S)n(Cc3cc(OC)c(OC)c(OC)c3)nc2-c2ccc(OC)cc2)cc1", "melting point": "142 to 146"}, {"smiles": "COC(=O)c1ccc(O)c(C=O)c1", "melting point": "80 to 81"}, {"smiles": "COC(=O)C[C@H](Cc1ccccc1)NC(=O)OCC(C)C", "melting point": "50 to 52"}, {"smiles": "CCCCCC(C)(c1ccc(O)c(C)c1)c1ccc(O)c(C)c1", "melting point": "99 to 101"}, {"smiles": "CN1CCCC(c2cccc3c2CC(=O)N3)C1", "note": "(stereo unspecified)", "melting point": 160}, {"smiles": "CC(C(=O)OC(C)(C)C)c1ccc(N2Cc3ccc(Cl)cc3C2=O)cc1", "note": "(stereo unspecified)", "melting point": "169 to 171"}, {"smiles": "CCCCOC1c2ccccc2C(=O)N(CC2CC2)C1(/C=C/C(=O)OCC)CNC(=O)OC(C)(C)C", "note": "(stereo unspecified)", "melting point": "166 to 167"}, {"smiles": "N#CC1=C(c2ccncc2)Nc2n[nH]cc2C1c1cccc2nonc12", "note": "(stereo unspecified)", "melting point": 236}, {"smiles": "COC(=O)C=Cc1ccccc1C#N", "melting point": "92 to 93"}, {"smiles": "CSC1C(=O)Nc2c(Oc3c(Cl)cccc3Cl)cccc21", "note": "(stereo unspecified)", "melting point": "> 230"}, {"smiles": "NC1=NS(=O)N=C1NCCCCN(Cc1ccc(Cl)cc1)c1ccccn1", "note": "(stereo unspecified)", "melting point": "175 to 177"}, {"smiles": "CC1(C)Cc2cc(O)c3c(c2C(c2cccc(-c4ccncc4)c2)=N1)CC(C)(C)O3", "melting point": "141 to 149"}, {"smiles": "CCOC(=O)c1cn(C)c2nc3c(F)c(F)c(F)cc3cc2c1=O", "melting point": 320}, {"smiles": "CN1C(=O)[C@@H](NC(=O)C(C)(C)C)N=C(c2ccccc2)c2ccccc21", "melting point": "85 to 94"}, {"smiles": "CCOC(=O)CNC(=O)C(C)(C)c1ccc(C2=NC(C)(C)Cc3cc(OC)c4c(c32)CC(C)(C)O4)cc1", "melting point": "133 to 138"}, {"smiles": "COc1ccc2c(c1C)CCCC2=O", "melting point": "103 to 105"}, {"smiles": "Cc1cccc(NC(=O)NCC(=O)N(CC(=O)OCC(F)(F)F)c2ccccc2)c1", "melting point": 172}]}]}
